Several values for one entry are separate records, joined by “and”; a condition that tells them apart may be missing. Equal entries are not always repeated.
Assays:
DNA repair protein genes = test: DNA chip mRNA expression in yeast, DNA repair protein genes (Table 3); assay type: cell-based, Saccharomyces cerevisiae S288C; settings: incubated two hours, concentrations as in the 1st table
Outline: (§1)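 Value is the scanned fluorescence intensity ratio of exposed versus chemical-free cells. Log-phase S288C yeast in YPD at 25° C. received one toxic substance for two hours, dosed to slow growth without killing; Cy3/Cy5-labeled cDNA from oligo-dT-purified mRNA was hybridized to a whole-genome chip at 65° C.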

[1] = test system: Detoxification protein genes; test: DNA chip mRNA expression in yeast, detoxification protein genes (Table 8); assay type: cell-based, Saccharomyces cerevisiae S288C
Outline: as §1

Compound: Oc1cc(Cl)c(Cl)cc1Cl [(6), 2,4,5-trichlorophenol]
- The level of expressed mRNA in the presence of chemical substance/The level of expressed mRNA in the absence of chemical substance (DNA repair protein genes; yeast gene YAL015C): 0.7
- The level of expressed mRNA in the presence of chemical substance/The level of expressed mRNA in the absence of chemical substance (DNA repair protein genes; yeast gene YBL019W): 1.0
- The level of expressed mRNA in the presence of chemical substance/The level of expressed mRNA in the absence of chemical substance (DNA repair protein genes; yeast gene YBR073W): 0.7
- The level of expressed mRNA in the presence of chemical substance/The level of expressed mRNA in the absence of chemical substance (DNA repair protein genes; yeast gene YCR014C): 1.1
- The level of expressed mRNA in the presence of chemical substance/The level of expressed mRNA in the absence of chemical substance (DNA repair protein genes; yeast gene YDL017W): 1.1
- The level of expressed mRNA in the presence of chemical substance/The level of expressed mRNA in the absence of chemical substance (DNA repair protein genes; yeast gene YDL059C): 1.2
- The level of expressed mRNA in the presence of chemical substance/The level of expressed mRNA in the absence of chemical substance (DNA repair protein genes; yeast gene YDL200C): 0.6
- The level of expressed mRNA in the presence of chemical substance/The level of expressed mRNA in the absence of chemical substance (DNA repair protein genes; yeast gene YDR054C): 1.9
- The level of expressed mRNA in the presence of chemical substance/The level of expressed mRNA in the absence of chemical substance (DNA repair protein genes; yeast gene YDR369C): 0.6
- The level of expressed mRNA in the presence of chemical substance/The level of expressed mRNA in the absence of chemical substance (DNA repair protein genes; yeast gene YEL019C): 1.5
- The level of expressed mRNA in the presence of chemical substance/The level of expressed mRNA in the absence of chemical substance (DNA repair protein genes; yeast gene YEL037C): 0.6
- The level of expressed mRNA in the presence of chemical substance/The level of expressed mRNA in the absence of chemical substance (DNA repair protein genes; yeast gene YER162C): 0.7
- The level of expressed mRNA in the presence of chemical substance/The level of expressed mRNA in the absence of chemical substance (DNA repair protein genes; yeast gene YFL014W): 9.3
- The level of expressed mRNA in the presence of chemical substance/The level of expressed mRNA in the absence of chemical substance (DNA repair protein genes; yeast gene YGL058W): 1.0 and 1.5
- The level of expressed mRNA in the presence of chemical substance/The level of expressed mRNA in the absence of chemical substance (DNA repair protein genes; yeast gene YGL091C): 1.6
- The level of expressed mRNA in the presence of chemical substance/The level of expressed mRNA in the absence of chemical substance (DNA repair protein genes; yeast gene YGL127C): 0.6
- The level of expressed mRNA in the presence of chemical substance/The level of expressed mRNA in the absence of chemical substance (DNA repair protein genes; yeast gene YGL163C): 0.9
- The level of expressed mRNA in the presence of chemical substance/The level of expressed mRNA in the absence of chemical substance (DNA repair protein genes; yeast gene YGL249W): 2.5
- The level of expressed mRNA in the presence of chemical substance/The level of expressed mRNA in the absence of chemical substance (DNA repair protein genes; yeast gene YGR180C): 0.6 and 1.0
- The level of expressed mRNA in the presence of chemical substance/The level of expressed mRNA in the absence of chemical substance (DNA repair protein genes; yeast gene YGR231C): 1.9
- The level of expressed mRNA in the presence of chemical substance/The level of expressed mRNA in the absence of chemical substance (DNA repair protein genes; yeast gene YGR258C): 2.2
- The level of expressed mRNA in the presence of chemical substance/The level of expressed mRNA in the absence of chemical substance (DNA repair protein genes; yeast gene YHR164C): 1.4
- The level of expressed mRNA in the presence of chemical substance/The level of expressed mRNA in the absence of chemical substance (DNA repair protein genes; yeast gene YIL036W): 1.8
- The level of expressed mRNA in the presence of chemical substance/The level of expressed mRNA in the absence of chemical substance (DNA repair protein genes; yeast gene YIL072W): 1.2
- The level of expressed mRNA in the presence of chemical substance/The level of expressed mRNA in the absence of chemical substance (DNA repair protein genes; yeast gene YIL143C): 1.4
- The level of expressed mRNA in the presence of chemical substance/The level of expressed mRNA in the absence of chemical substance (DNA repair protein genes; yeast gene YIL153W): 0.9
- The level of expressed mRNA in the presence of chemical substance/The level of expressed mRNA in the absence of chemical substance (DNA repair protein genes; yeast gene YIR002C): 2.2
- The level of expressed mRNA in the presence of chemical substance/The level of expressed mRNA in the absence of chemical substance (DNA repair protein genes; yeast gene YJL026W): 1.0
- The level of expressed mRNA in the presence of chemical substance/The level of expressed mRNA in the absence of chemical substance (DNA repair protein genes; yeast gene YJR046W): 2.0
- The level of expressed mRNA in the presence of chemical substance/The level of expressed mRNA in the absence of chemical substance (DNA repair protein genes; yeast gene YJR052W): 1.4
- The level of expressed mRNA in the presence of chemical substance/The level of expressed mRNA in the absence of chemical substance (DNA repair protein genes; yeast gene YKL145W): 2.1
- The level of expressed mRNA in the presence of chemical substance/The level of expressed mRNA in the absence of chemical substance (DNA repair protein genes; yeast gene YLR103C): 1.1
- The level of expressed mRNA in the presence of chemical substance/The level of expressed mRNA in the absence of chemical substance (DNA repair protein genes; yeast gene YLR233C): 0.8
- The level of expressed mRNA in the presence of chemical substance/The level of expressed mRNA in the absence of chemical substance (DNA repair protein genes; yeast gene YLR288C): 1.2
- The level of expressed mRNA in the presence of chemical substance/The level of expressed mRNA in the absence of chemical substance (DNA repair protein genes; yeast gene YML032C): 0.9
- The level of expressed mRNA in the presence of chemical substance/The level of expressed mRNA in the absence of chemical substance (DNA repair protein genes; yeast gene YMR035W): 1.5
- The level of expressed mRNA in the presence of chemical substance/The level of expressed mRNA in the absence of chemical substance (DNA repair protein genes; yeast gene YMR072W): 1.6 and 2.4
- The level of expressed mRNA in the presence of chemical substance/The level of expressed mRNA in the absence of chemical substance (DNA repair protein genes; yeast gene YMR096W): 2.2
- The level of expressed mRNA in the presence of chemical substance/The level of expressed mRNA in the absence of chemical substance (DNA repair protein genes; yeast gene YMR284W): 0.8 and 1.2
- The level of expressed mRNA in the presence of chemical substance/The level of expressed mRNA in the absence of chemical substance (DNA repair protein genes; yeast gene YNL213C): 1.7
- The level of expressed mRNA in the presence of chemical substance/The level of expressed mRNA in the absence of chemical substance (DNA repair protein genes; yeast gene YNL250W): 0.8
- The level of expressed mRNA in the presence of chemical substance/The level of expressed mRNA in the absence of chemical substance (DNA repair protein genes; yeast gene YNL261W): 1.3
- The level of expressed mRNA in the presence of chemical substance/The level of expressed mRNA in the absence of chemical substance (DNA repair protein genes; yeast gene YNL312W): 1.7
- The level of expressed mRNA in the presence of chemical substance/The level of expressed mRNA in the absence of chemical substance (DNA repair protein genes; yeast gene YOL043C): 0.8
- The level of expressed mRNA in the presence of chemical substance/The level of expressed mRNA in the absence of chemical substance (DNA repair protein genes; yeast gene YOR005C): 1.3
- The level of expressed mRNA in the presence of chemical substance/The level of expressed mRNA in the absence of chemical substance (DNA repair protein genes; yeast gene YOR386W): 3.3
- The level of expressed mRNA in the presence of chemical substance/The level of expressed mRNA in the absence of chemical substance (DNA repair protein genes; yeast gene YPL022W): 5.2
- The level of expressed mRNA in the presence of chemical substance/The level of expressed mRNA in the absence of chemical substance (DNA repair protein genes; yeast gene YPL164C): 1.7
- The level of expressed mRNA in the presence of chemical substance/The level of expressed mRNA in the absence of chemical substance (DNA repair protein genes; yeast gene YPL194W): 1.1
- The level of expressed mRNA in the presence of chemical substance/The level of expressed mRNA in the absence of chemical substance (DNA repair protein genes; yeast gene YPR025C): 0.9
- The level of expressed mRNA in the presence of chemical substance/The level of expressed mRNA in the absence of chemical substance ([1]; yeast gene YBL064C): 5.2
- The level of expressed mRNA in the presence of chemical substance/The level of expressed mRNA in the absence of chemical substance ([1]; yeast gene YBR008C): 1.0
- The level of expressed mRNA in the presence of chemical substance/The level of expressed mRNA in the absence of chemical substance ([1]; yeast gene YBR145W): 11.5
- The level of expressed mRNA in the presence of chemical substance/The level of expressed mRNA in the absence of chemical substance ([1]; yeast gene YBR244W): 1.0
